Laboratory results from article PMC10610016, “New Hybrid Compounds Incorporating Natural Products as Multifunctional Agents against Alzheimer’s Disease” (Pharmaceutics, 2023).
Values joined by “and” are separate entries in the source; they are usually repeats but may differ in a detail not shown here. Equal values may be shown once. Read-outs that look alike come from different tables or passages of the source. Each block holds one compound with its values, some of them ahead of it.

Columns and labels:
[1] = UV–Vis metal binding study, Cu2+ (mole ratio method); format: physicochemical; conditions: for stoichiometry for the Cu2+–ligand complex (molar fraction analysis): ligand 20 µM, Cu2+ 0 to 80 µM; for shift in UV spectrum in the presence of Cu2+ (first screening): ligand 20 μM, Cu2+ 80 µM, MeOH
Description: (§1) The synthesized compounds were tested for their metal chelating effect through spectroscopic measurements. The UV–Vis absorbance of compounds was recorded in the absence and presence of metal ions using a UV–Vis spectrometer (a SPECTROstarNano (220–1000 nm), Ortenberg, Germany. The experiment was performed in 96-well plates and each experiment was made in triplicates. A fixed amount of investigated ligand (20 μM) solubilized in MeOH was mixed with increasing concentration of Cu^2+ (CuCl2), Fe^2+ (FeSO4) and Zn^2+ (ZnCl2) from 0 to 80 μM and incubated for 30 min at room temperature (r.t.). The absorbance change was monitored at wavelengths ranging from 220 to 700 nm. The stoichiometry of studied compounds for Cu^2+ and Fe^2+ complexes was determined by employing the mole ratio method.

[2] = DPPH radical scavenging assay; format: biochemical; conditions: for %AA (percentage of antioxidant activity), DPPH: compound 100 µM, DPPH 60 µM in MeOH, 1 h; for EC50 / TEAC (Trolox equivalent antioxidant capacity), DPPH: mean ± SEM of three independent experiments
Description: The DPPH assay was carried out in a 96-microwell plate according to a previously described protocol. In brief, DPPH solution (60 µM in MeOH) was added to studied compounds or MeOH as the control. The 96-microwell plate was incubated (in the dark, at r.t. for 1 h) and the absorbance values were read at 517 nm by a SPECTROstarNano (220–1000 nm) UV–Vis spectrophotometer, Ortenberg, Germany. During the first screening, all compounds were tested ad 100 µM, then for compounds 2a–c the EC50 (effective concentration), the concentration of substrate that causes a 50% reduction in the DPPH colour, was calculated.
All experiments were made in triplicate. The percentage of the antioxidant activity (%AA) of the compounds was determined according to Equation (1):%AA = ((AbsDPPH − Abssample)/AbsDPPH) × 100(1)
AbsDPPH is the absorbance of DPPH solution, and Abssample is the absorbance of DPPH solution containing the tested compound.
Each concentration was tested in triplicate and the EC50 value was reported as the mean ± the standard error of the mean (SEM) of three independent experiments.

[3] = UV–Vis metal binding study, Fe2+ (mole ratio method); format: physicochemical
Description: as §1

Aβ1-40 = molecular target: T1, Aβ1-40 (Homo sapiens, UniProt P05067); test: Thioflavin T (ThT) fluorescence assay of Aβ1-40 fibril formation; format: biochemical; conditions: for inhibition of Aβ1-40 fibril formation (ThT): Aβ1-40 10 µM
T1 construct: Aβ1-40 was obtained from Bachem (Bubendorf, Switzerland); purchased Bachem (Bubendorf, Switzerland)
Description: Aβ1-40 was obtained from Bachem (Bubendorf, Switzerland). To remove preformed aggregates, it was dissolved during 15–20 min at r.t. in 1% NH4OH to give a concentration of 2 mg/mL, followed by immediate lyophilisation. The Aβ1-40 peptide was then dissolved in an aqueous 1% ammonia solution to a concentration of 1 mM and then, just prior to use, was diluted to 0.2 mM with 10 mM Tris-HCl, 100 mM NaCl buffer (pH 7.4). Compounds (2a–c) were dissolved in DMSO (4.9 mM), while TTR in phosphate buffer 20 mM buffer (pH 7.4) at 1 mM concentration. ThT fluorescence was measured to evaluate the development of Aβ1-40 fibrils over time using a fluorescence plate reader (Vantastar, BMG lab-tech, Ortenberg, Germany) with standard 96-well black microliter plates. The ThT fluorescence intensity was recorded by using excitation/emission settings at 440−15 nm/480−15nm for 21 h and applying a double orbital shaking of 10 s before the first cycle. Experiments were triggered by adding Aβ1-40 achieving a final concentration of 10 μM into a mixture containing 40 μM ThT in 10 mM Tris-HCl, 100 mM NaCl buffer (pH 7.4) with and without the studied compounds (10 μM) at 25 °C, and with and without CuCl2 (10 µM). When TTR was assessed in the presence of compound 2a, the ratio between TTR and 2a was adjusted to 1:2 (TTR:2a) in order to let the compound interacting with both hydrophobic pockets. A time of 3 h of incubation was employed before adding the solution into the well. The F reduction is depicted as the intensity of experimental fluorescence plateau observed with the studied compound relative to the value obtained without the compound and is quantified as the following percentage: ((F Aβ1-40+compound − F Aβ1-40)/(F Aβ1-40)) × 100. The data of fluorescence intensity come from at least two independent experiments, where each condition has been performed in duplicate, in the case of the presence of TTR (10 µM), or triplicate, in the case of the absence of TTR (10 µM), respectively. The values are given as averaged percentage ± SEM.

ABTS assay = format: biochemical; conditions: for radical scavenger / antioxidant activity, ABTS: compound 100 µM; for EC50 / TEAC, ABTS: mean ± SEM of three independent experiments
Description: The ABTS assay was performed according to the methods reported in literature. Briefly, 7 mM of ABTS was mixed with 2.45 mM of K2S2O8 solution, ratio 1:1, in 10 mM phosphate buffer (pH 7.4). The mixture was incubated in a dark box at r.t. for 12 h, then the stock solution was diluted until the absorbance was 0.70 ± 0.02 at 734 nm.
In a 96-well plate, 190 µL ABTS working solution and 10 µL sample solution (compounds 2a–c, 3a–c at concentration of 100 μM) were mixed and the absorbance was measured (734 nm) using a SPECTROstarNano (220–1000 nm) UV–Vis spectrophotometer, Ortenberg, Germany. Then, for compounds 2a–c the EC50 was calculated and the values were expressed in TEAC equivalents. Each concentration was tested in triplicate and the EC50 was reported as the mean ± SEM of three independent experiments.

Human Plasma TTR = molecular target: T2, Human Plasma TTR (Homo sapiens, UniProt P02766); test: ANS competitive binding (displacement) assay; conditions: TTR 8 µM, ANS 16 µM
T2 construct: purchased Merck Millipore, Molsheim, France; host or cells: human plasma
Description: The binding of ANS (8-anilino-1-naphthalenesulfonic acid), Sigma-Aldrich (St. Louis, MO, USA) and its displacement by the three selected compounds 2a–c were studied using Human Plasma TTR (Merck Millipore, Molsheim, France) according to the protocol previously described. Briefly, TTR (8 µM) was incubated with ANS (16 µM) at r.t. for 15 min in 96-well plates. Then, compounds 2a–c at concentrations of 100 µM were added. After 10 min, the fluorescent emission spectra (400–540 nm) were recorded exciting at 280 nm using Molecular Devices SpectraMax Gemini XPS plate reader, (San Jose, CA, USA). For compounds 2a, the IC50 was calculated and value was expressed as the mean ± SEM of the triplicate. All experiments were made in triplicate and, the fluorescence increases of ANS bound to TTR solution compared to its control without TTR, and TTR alone, in phosphate buffer, were used as a control.

[4] = Colorimetric Fe2+ chelation with ferrozine; format: physicochemical; conditions: FeSO4, ferrozine
Description: (§2) Due to a non-measurable UV absorbance for compounds 4a and 5c, a different protocol using pyrocatechol violet (PV) was applied. The compounds (200 µM) incubated for 10 min with CuSO4 (200 µM), after 200 µM PV was added and the plate was incubated at 25 °C for 20 min. The absorption spectra were recorded. The same protocol was used for Fe^2+ (FeSO4) in presence of ferrozine.

[5] = Colorimetric Cu2+ chelation with pyrocatechol violet (PV); format: physicochemical; conditions: compound 200 µM, CuSO4 200 µM, PV 200 µM
Description: as §2

[6] = parameters: method as in PMID 31055242; conditions: literature value; cited from earlier work
[7] = parameters: method as in PMID 31055242; conditions: literature value; cited from earlier work; remark: listed apart in the source

T1 sequence (P05067 672-711 limits assumed): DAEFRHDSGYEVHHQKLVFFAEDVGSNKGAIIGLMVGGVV

SMILES: O=C(C=Cc1ccccc1)NOCc1ccccc1C(F)(F)F [Compound 1a, N-((2-(trifluoromethyl)benzyl)oxy)cinnamamide]
- melting point: 91 to 93 °C
- stoichiometry for the Cu2+–ligand complex (molar fraction analysis) [1]: 1.0
- shift in UV spectrum in the presence of Cu2+ (first screening) [1]: significant shift

SMILES: O=C(C=Cc1ccccc1)NOCc1cccc(C(F)(F)F)c1 [Compound 1b, N-((3-(trifluoromethyl)benzyl)oxy)cinnamamide]
- melting point: 91 to 93 °C

SMILES: O=C(C=Cc1ccccc1)NOCc1ccc(C(F)(F)F)cc1 [Compound 1c, N-((4(trifluoromethyl)benzyl)oxy)cinnamamide]
- melting point: 148 to 150 °C

SMILES: O=C(/C=C/c1ccc(O)c(O)c1)NOCc1ccccc1C(F)(F)F [Compound 2a, (E)-3-(3,4-dihydroxyphenyl)-N-((2-(trifluoromethyl)benzyl)oxy)acrylamide]
- melting point: 80 to 82 °C
- %AA (percentage of antioxidant activity), DPPH [2]: 95%
- EC50 [2]: 8.9 ± 0.2 µM
- TEAC (Trolox equivalent antioxidant capacity), DPPH [2]: 12.4 ± 0.4 µM
- shift in UV spectrum in the presence of Cu2+ (first screening) [1]: significant shift
- molar fraction of the 2a–Fe2+ complex ([3]; Fe2+ 0 to 30 µM, absorbance changes at 330 nm): 1
- change in UV spectrum when Fe2+ was added (first screening) ([3]; ligand 20 μM, Fe2+ 80 µM, MeOH): weak change
- effect on Aβ1-40 fibril formation (ThT) (Aβ1-40; TTR 10 µM pre-incubated with 2a 20 µM (1:2 TTR/2a), without Cu2+): slight positive effect
- inhibition of Aβ1-40 fibril formation (ThT) (Aβ1-40; with Cu2+ 10 µM, compound 10 µM): completely inhibition of the fibril formation
- inhibition of Aβ1-40 fibril formation (ThT) (Aβ1-40; without Cu2+, compound 10 µM (1:1 ratio)): discrete inhibitory activity
- radical scavenger / antioxidant activity, ABTS (ABTS assay): 99.1%
- EC50 (ABTS assay): 9.9 ± 0.2 µM
- TEAC, ABTS (ABTS assay): 11.3 ± 0.1 µM
- IC50 (Human Plasma TTR; mean ± SEM of triplicate): 31.9 µM
- displacement of ANS from TTR (Human Plasma TTR; compound 100 µM): 71%

SMILES: O=C(CCCC[C@@H]1CCSS1)NOCc1ccccc1C(F)(F)F [Compound 5a, (R)-5-(1,2-dithiolan-3-yl)-N-((2-(trifluoromethyl)benzyl)oxy)pentanamide]
- interaction with Fe2+, colorimetric method with ferrozine [4]: No interaction
- interaction with Cu2+, colorimetric method with PV [5]: slight shift

SMILES: O=C(O)/C=C/c1ccc(O)c(O)c1 [caffeic acid]
- EC50 [6]: 13.3 µM
- EC50 [7]: 10.9 µM

Further lines, with some results ahead:

- melting point: 188 to 190 °C
- EC50 [2]: 6 ± 0.1 µM
- EC50 (ABTS assay): 22.9 ± 0.5 µM
SMILES: O=C(/C=C/c1ccc(O)c(O)c1)NOCc1ccc(C(F)(F)F)cc1 [Compound 2c]
- %AA (percentage of antioxidant activity), DPPH [2]: 96% and 58%
- TEAC (Trolox equivalent antioxidant capacity), DPPH [2]: 10.4 ± 0.4 µM
- radical scavenger / antioxidant activity, ABTS (ABTS assay): 97.3%
- TEAC, ABTS (ABTS assay): 11.8 ± 0.02 µM

- melting point: 165 to 167 °C
- stoichiometry for the Cu2+–ligand complex (molar fraction analysis) [1]: around 2
- shift in UV spectrum in the presence of Cu2+ (first screening) [1]: significant shift
SMILES: O=C(/C=C/c1ccc(O)cc1O)NOCc1ccccc1C(F)(F)F [Compound 3a, (E)-3-(2,4-dihydroxyphenyl)-N-((2-(trifluoromethyl)benzyl)oxy)acrylamide]
- %AA (percentage of antioxidant activity), DPPH [2]: 59%
- radical scavenger / antioxidant activity, ABTS (ABTS assay): 68%

- melting point: 157 to 158 °C
SMILES: O=C(/C=C/c1ccc(O)cc1O)NOCc1cccc(C(F)(F)F)c1 [Compound 3b, (E)-3-(2,4-dihydroxyphenyl)-N-((3-(trifluoromethyl)benzyl)oxy)acrylamide]
- %AA (percentage of antioxidant activity), DPPH [2]: 60%
- radical scavenger / antioxidant activity, ABTS (ABTS assay): 67%

- melting point: 176 to 178 °C
SMILES: O=C(/C=C/c1ccc(O)cc1O)NOCc1ccc(C(F)(F)F)cc1 [Compound 3c, (E)-3-(2,4-dihydroxyphenyl)-N-((4-(trifluoromethyl)benzyl)oxy)acrylamide]
- radical scavenger / antioxidant activity, ABTS (ABTS assay): 65%

- melting point: 73 to 75 °C
SMILES: CCCC(CCC)C(=O)NOCc1ccccc1C(F)(F)F [Compound 4a, 2-propyl-N-((2-(trifluoromethyl)benzyl)oxy)pentanamide]
- interaction with Fe2+, colorimetric method with ferrozine [4]: No interaction
- interaction with Cu2+, colorimetric method with PV [5]: slight shift

- melting point: 74 to 76 °C
SMILES: CCCC(CCC)C(=O)NOCc1cccc(C(F)(F)F)c1 [Compound 4b, 2-propyl-N-((3-(trifluoromethyl)benzyl)oxy)pentanamide]

- melting point: 78 to 80 °C
SMILES: CCCC(CCC)C(=O)NOCc1ccc(C(F)(F)F)cc1 [Compound 4c, 2-propyl-N-((4-(trifluoromethyl)benzyl)oxy)pentanamide]
